Assay [1] deals with MNFS60 (murine AML cells). Kind of assay: Cell viability assay in MCSF dependent MNFS60 cells (Cell Titer Glo). In kind it is cell-based. Particulars: tested at about 1 μM; for inhibition at 1 µM: Mus musculus, read-out: M-NFS-60 CP percent inhibition. The method, boiled down:
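3-fold DMSO dilution series (500× stocks); MCSF 10 ng/ml final; 72 hrs, 37° C., 5% CO2; CellTiter-Glo read-out; n=3; EC50 fitted.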
On the technique in general: Cellular ATP, detected with luciferase, serves as a proxy for viable cell number.

The target in the next assay is T1, kinase domain of PDGFRβ (Homo sapiens, UniProt P09619).
T1 construct: The kinase domain of PDGFRβ was assayed in 50 mM Hepes; purchased Invitrogen P3082
T1 sequence (P09619 600-962 limits assumed): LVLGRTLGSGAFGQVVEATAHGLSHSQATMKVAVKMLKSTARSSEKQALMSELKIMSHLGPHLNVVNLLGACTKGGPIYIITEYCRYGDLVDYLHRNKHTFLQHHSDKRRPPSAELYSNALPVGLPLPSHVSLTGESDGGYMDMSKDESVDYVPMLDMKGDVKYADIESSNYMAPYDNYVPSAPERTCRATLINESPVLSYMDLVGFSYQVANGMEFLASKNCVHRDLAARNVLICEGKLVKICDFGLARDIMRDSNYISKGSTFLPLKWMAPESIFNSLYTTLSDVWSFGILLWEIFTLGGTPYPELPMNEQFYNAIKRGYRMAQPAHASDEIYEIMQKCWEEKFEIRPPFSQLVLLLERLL
Put plainly: Inhibition of PDGFRb kinase signaling in an in vitro biochemical assay (alphascreen). Particulars: tested at about 1 μM; for inhibition at 1 µM: read-out: PDGFRβ percent inhibition. (Alpha assays give light when donor and acceptor beads are brought close together.)

For assay [2], the target named is T2, cytoplasmic domain of the human CSF-1R (Homo sapiens, UniProt P07333).
T2 construct: Recombinant protein corresponding to the cytoplasmic domain of the human CSF-1R; purchased Invitrogen Corporation, Carlsbad, Calif; PV3249
T2 sequence (P07333 539-972 limits assumed): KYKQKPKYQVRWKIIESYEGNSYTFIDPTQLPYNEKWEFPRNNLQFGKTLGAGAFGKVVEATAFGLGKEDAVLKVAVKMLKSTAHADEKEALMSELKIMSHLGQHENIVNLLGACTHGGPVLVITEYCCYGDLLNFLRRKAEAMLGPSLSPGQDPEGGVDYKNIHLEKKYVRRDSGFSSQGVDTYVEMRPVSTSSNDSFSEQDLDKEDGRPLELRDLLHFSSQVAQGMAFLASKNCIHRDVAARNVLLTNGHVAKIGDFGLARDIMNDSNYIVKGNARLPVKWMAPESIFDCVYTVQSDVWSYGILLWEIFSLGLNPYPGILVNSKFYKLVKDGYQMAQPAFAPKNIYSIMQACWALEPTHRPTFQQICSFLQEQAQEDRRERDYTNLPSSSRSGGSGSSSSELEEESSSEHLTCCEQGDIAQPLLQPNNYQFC
Kind of assay: In vitro kinase assay for colony stimulating factor-1 receptor (AlphaScreen). In kind it is biochemical. The note with it: tested at about 1 μM; for inhibition at 1 µM: read-out: CSF-1R percent inhibition. Put shortly:
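At a low ATP level of 1 μM, phosphate transfer by the cytoplasmic-domain kinase (4 nM) was quantified with an AlphaScreen anti-phosphotyrosine bead pair.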

The target of assay [3] is T3, full-length human CSF-1R receptor (Homo sapiens, UniProt P07333).
T3 construct: transfected with the full-length human CSF-1R receptor cloned in house; expressed in transfected cells; host or cells: HEK293H (Invitrogen Cat. #11631017)
T3 sequence (P07333 20-972): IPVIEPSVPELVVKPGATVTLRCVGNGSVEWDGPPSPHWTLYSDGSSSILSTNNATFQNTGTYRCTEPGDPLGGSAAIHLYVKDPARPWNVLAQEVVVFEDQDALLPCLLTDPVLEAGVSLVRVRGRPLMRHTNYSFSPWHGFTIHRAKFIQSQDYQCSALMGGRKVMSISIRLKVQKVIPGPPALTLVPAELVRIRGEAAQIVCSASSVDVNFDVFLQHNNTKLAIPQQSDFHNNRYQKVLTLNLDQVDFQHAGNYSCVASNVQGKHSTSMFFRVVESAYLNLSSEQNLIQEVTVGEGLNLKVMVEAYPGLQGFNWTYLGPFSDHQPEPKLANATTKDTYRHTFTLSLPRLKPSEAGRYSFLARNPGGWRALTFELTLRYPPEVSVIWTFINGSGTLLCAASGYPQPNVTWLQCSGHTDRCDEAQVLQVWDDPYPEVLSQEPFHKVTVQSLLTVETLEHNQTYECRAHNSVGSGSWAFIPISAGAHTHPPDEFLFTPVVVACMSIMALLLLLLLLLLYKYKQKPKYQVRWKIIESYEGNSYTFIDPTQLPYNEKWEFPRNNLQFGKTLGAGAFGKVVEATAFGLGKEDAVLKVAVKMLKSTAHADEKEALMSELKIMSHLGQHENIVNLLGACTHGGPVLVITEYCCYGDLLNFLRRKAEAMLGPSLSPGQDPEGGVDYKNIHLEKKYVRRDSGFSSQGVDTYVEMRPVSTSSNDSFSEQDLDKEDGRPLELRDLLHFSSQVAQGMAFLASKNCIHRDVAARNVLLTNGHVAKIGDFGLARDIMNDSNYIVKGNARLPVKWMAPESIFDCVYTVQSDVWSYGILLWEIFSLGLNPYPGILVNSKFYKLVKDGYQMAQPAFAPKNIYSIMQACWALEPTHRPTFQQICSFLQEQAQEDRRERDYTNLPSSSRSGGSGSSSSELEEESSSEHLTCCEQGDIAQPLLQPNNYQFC
Kind of assay: In vitro inhibition of CSF-1R receptor tyrosine phosphorylation in transfected HEK293H cells stimulated with MCSF. In kind it is cell-based. The note with it: tested at about 1 μM; for inhibition at 1 µM: HEK293-H, read-out: pCSF1R percent inhibition. The procedure: The lysate was then transferred to total CSF-1R antibody coated 96-well plates that had already been blocked with 3% Blocker A from Mesoscale discovery (MSD) for 2 hours and washed afterwards. Lysates were incubated overnight at 4° C. and the plates were then washed 4× with MSD Tris Wash Buffer. […] The plates were read on the Sector 6000 instrument (MSD). Raw data was imported in Abase and EC50s calculated with XL-fit data analysis software.

The target of a further assay is T4, kinase domain of cKIT (Homo sapiens, UniProt P10721).
T4 construct: The kinase domain of cKIT was assayed in 50 mM Hepes; purchased Upstate 14-559
T4 sequence (P10721 589-937 limits assumed): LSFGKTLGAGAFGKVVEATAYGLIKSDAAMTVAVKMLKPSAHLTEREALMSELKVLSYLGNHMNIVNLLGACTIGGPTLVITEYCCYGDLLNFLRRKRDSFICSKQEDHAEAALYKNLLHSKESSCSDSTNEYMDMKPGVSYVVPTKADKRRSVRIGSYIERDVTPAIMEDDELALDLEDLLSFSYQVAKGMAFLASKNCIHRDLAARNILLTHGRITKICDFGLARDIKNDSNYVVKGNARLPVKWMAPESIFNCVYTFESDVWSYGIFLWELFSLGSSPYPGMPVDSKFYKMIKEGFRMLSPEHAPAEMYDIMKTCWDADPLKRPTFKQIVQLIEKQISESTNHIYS
Put plainly: Inhibition of cKIT kinase signaling in an in vitro biochemical assay (alphascreen). Particulars: tested at about 1 μM; for inhibition at 1 µM: read-out: cKit percent inhibition.

This note sets out measurements from patent US8173689B2 (Novartis AG, priority 2006, dated 2012).

Like-named read-outs stand apart in the source and are kept apart here.

Consider “4-[2-(2-Chloro- benzylamino)-benzooxazol- 6-yloxy]-pyridin-2- carboxylic acid methylamide [Compound 8]”, for which, in assay [1] (compounds of Table 4), the “M-NFS-60 CP percent inhibition” value came out at 100%. On kinase domain of PDGFRβ (compounds of Table 4), this compound yielded a PDGFRβ percent inhibition of 35%. Also, the CSF-1R percent inhibition in assay [2] (compounds of Table 4) came out at 100%. In assay [3] (compounds of Table 4), this compound displayed a pCSF1R percent inhibition of 98%. Further, the cKit percent inhibition on kinase domain of cKIT (compounds of Table 4) is reported as 25%.
Broadly, the inhibition is the share of the control response that was lost under treatment. With `CCc1[nH]c(-c2cc(Oc3ccc4nc(N[C@@H]5CCCC[C@H]5O)sc4c3)ccn2)nc1C` [Cmpd 162, (1R,2R)-2-(6-(2-(5-ethyl-4-methyl-1H-imidazol-2-yl)pyridin-4-yloxy)benzo[d]thiazol-2-ylamino)cyclohexanol], the inhibition at 1 µM in assay [1] (compounds of Table 3) worked out at 100%; on kinase domain of PDGFRβ (compounds of Table 3) it was 30%; in assay [2] (compounds of Table 3) it was 100%; in assay [3] (compounds of Table 3), 99%; on kinase domain of cKIT (compounds of Table 3) it was 20%.
As to `C[C@H](Nc1nc2ccc(Oc3ccnc(-c4cnn(C)c4)c3)cc2s1)C1CCCCC1` [Cmpd 163, (S)-N-(1-cyclohexylethyl)-6-(2-(1-methyl-1H-pyrazol-4-yl)pyridin-4-yloxy)benzo[d]thiazol-2-amine], the inhibition at 1 µM in assay [1] (compounds of Table 3) came out at 100%; on kinase domain of PDGFRβ (compounds of Table 3), 39%; in assay [2] (compounds of Table 3), 100%; in assay [3] (compounds of Table 3), 99%; on kinase domain of cKIT (compounds of Table 3), 32%.
As to `CNC(=O)c1cc(Oc2ccc3nc(NC[C@@H]4C[C@H]5CC[C@@H]4C5(C)C)oc3c2)ccn1` [Compound 15, 4-{2-[((1S,2R,4R)-7,7-Dimethyl-bicyclo[2.2.1]hept-2-ylmethyl)-amino]-benzooxazol-6-yloxy}-pyridin-2-carboxylic acid methylamide], the inhibition at 1 µM is 97% in assay [1] (MNFS60 cells), 88% on kinase domain of PDGFRβ, 100% in assay [2] and 92% in assay [3] (HEK293H cells).
For the compound `CNC(=O)c1cc(Oc2ccc3nc(NCc4ccccc4F)oc3c2)ccn1` [Compound 16, 4-[2-(2-Fluoro-benzylamino)-benzooxazol-6-yloxy]-pyridin-2-carboxylic acid methylamide], the inhibition at 1 µM came out at 25% in assay [1] (MNFS60 cells), 20% on kinase domain of PDGFRβ, 99% in assay [2] and 81% in assay [3] (HEK293H cells).
The matching figures for `CNC(=O)c1cc(Oc2ccc3nc(N[C@H](C)c4cccc5ccccc45)oc3c2)ccn1` [Compound 18, 4-[2-((R)-1-Naphthalen-1-yl-ethylamino)-benzooxazol-6-yloxy]-pyridine-2-carboxylic acid methylamide]: 91%, 35%, 100% and 74%.
On to `CNC(=O)c1cc(Oc2ccc3nc(NCC4CCCCC4)oc3c2)ccn1` [Compound 21, 4-[2-(Cyclohexylmethyl-amino)-benzooxazol-6-yloxy]-pyridine-2-carboxylic acid methylamide], for which the inhibition at 1 µM in assay [1] (MNFS60 cells) came to 55%; at kinase domain of PDGFRβ it was 0%; in assay [2], 99%; in assay [3] (HEK293H cells), 65%.
`CNC(=O)c1cc(Oc2ccc3nc(Nc4ccccc4CN4CCOCC4)oc3c2)ccn1` [Compound 25, 4-[2-(2-Morpholin-4-ylmethyl-phenylamino)-benzooxazol-6-yloxy]-pyridine-2-carboxylic acid methylamide]: the inhibition at 1 µM in assay [1] (MNFS60 cells) amounted to 42%; on kinase domain of PDGFRβ it was 7%; in assay [2], 98%; in assay [3] (HEK293H cells) it was 35%.
Consider `CNC(=O)c1cc(Oc2ccc3nc(NCc4ccc(Cl)cc4)oc3c2)ccn1` [Compound 27, 4-[2-(4-Chloro-benzylamino)-benzooxazol-6-yloxy]-pyridine-2-carboxylic acid methylamide], for which the inhibition at 1 µM in assay [1] (MNFS60 cells) was 97%; at kinase domain of PDGFRβ, 28%; in assay [2] it was 99%; in assay [3] (HEK293H cells) it was 96%.
As for `CNC(=O)c1cc(Oc2ccc3nc(Nc4ccc(OC)cc4OC)oc3c2)ccn1` [Compound 28, 4-[2-(2,4-Dimethoxy-phenyl-amino)-benzooxazol-6-yl-oxy]-pyridine-2-carboxylic acid methylamide], the inhibition at 1 µM in assay [1] (MNFS60 cells) was 98%; at kinase domain of PDGFRβ, 98%; in assay [2] it was 99%; in assay [3] (HEK293H cells), 88%.
For `CNC(=O)c1cc(Oc2ccc3nc(N[C@H](C)c4ccccc4OC)oc3c2)ccn1` [Compound 31, 4-{2-[(R)-1-(2-Methoxy-phenyl)-ethylamino]-benzooxazol-6-yloxy}-pyridine-2-carboxylic acid methylamide], the inhibition at 1 µM is 57% in assay [1] (MNFS60 cells), 100% in assay [2], 79% in assay [3] (HEK293H cells) and 18% at kinase domain of cKIT.
As for `CC(=O)Nc1cc(Oc2ccc3nc(NCc4ccccc4Cl)oc3c2)ccn1` [Compound 32, N-{4-[2-(2-Chloro-benzylamino)-benzooxazol-6-yloxy]-pyridin-2-yl}-acetamide], the inhibition at 1 µM in assay [1] (MNFS60 cells) is 70%; at kinase domain of PDGFRβ, 22%; in assay [2], 100%; in assay [3] (HEK293H cells), 93%.
Consider `CC(=O)Nc1cc(Oc2ccc3nc(NCC4CCCCC4)oc3c2)ccn1` [Compound 34, N-{4-[2-(Cyclohexylmethyl-amino)-benzooxazol-6-yloxy]-pyridin-2-yl}-acetamide], for which the inhibition at 1 µM came out at 68% in assay [1] (MNFS60 cells), 89% at kinase domain of PDGFRβ, 99% in assay [2] and 65% in assay [3] (HEK293H cells).
`CNC(=O)c1cc(Oc2ccc3nc(NCc4ccccc4)oc3c2)ccn1` [Compound 41, 4-(2-Benzylamino-benzooxazol-6-yloxy)-pyridine-2-carboxylic acid methylamide]: the inhibition at 1 µM in assay [1] (MNFS60 cells) came to 100%; at kinase domain of PDGFRβ it was 30%; in assay [2], 100%; in assay [3] (HEK293H cells), 94%.
Turning to `CNC(=O)c1cc(Oc2ccc3nc(NCc4cccc(Cl)c4)oc3c2)ccn1` [Compound 42, 4-[2-(3-Chloro-benzylamino)-benzooxazol-6-yloxy]-pyridine-2-carboxylic acid methylamide], the inhibition at 1 µM was found to be 100% in assay [1] (MNFS60 cells), 12% at kinase domain of PDGFRβ, 99% in assay [2] and 97% in assay [3] (HEK293H cells).
Turning to `CNC(=O)c1cc(Oc2ccc3nc(NCc4ccccc4N(C)C)oc3c2)ccn1` [Compound 85, 4-[2-(2-Dimethylamino-benzylamino)-benzooxazol-6-yloxy]-pyridine-2-carboxylic acid methylamide], the inhibition at 1 µM in assay [1] (MNFS60 cells) stood at 100%; in assay [2] it was 99%; in assay [3] (HEK293H cells) it was 98%; on kinase domain of cKIT, 79%.
For the compound `CNC(=O)c1cc(Oc2ccc3nc(NCc4ccccc4N4CCOCC4)oc3c2)ccn1` [Compound 88, 4-[2-(2-Morpholin-4-yl-benzylamino)-benzooxazol-6-yloxy]-pyridine-2-carboxylic acid methylamide], the inhibition at 1 µM in assay [1] (MNFS60 cells) was determined as 100%; in assay [2], 100%; in assay [3] (HEK293H cells), 96%; at kinase domain of cKIT, 98%.
As to `CNC(=O)c1cc(Oc2ccc3nc(NCc4cccc(OC)c4OC)oc3c2)ccn1` [Compound 91, 4-[2-(2,3-Dimethoxy-benzyl-amino)-benzooxazol-6-yloxy]-pyridine-2-carboxylic acid methylamide], the inhibition at 1 µM in assay [1] (MNFS60 cells) stood at 87%; in assay [2] it was 99%; in assay [3] (HEK293H cells) it was 97%; on kinase domain of cKIT, 93%.
